# Assay results taken from PubChem BioAssay (NCI).
#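 The concentration for 50% growth inhibition is given as GI50. TGI is the concentration that stops growth completely.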
# Assays:
# Test in all cases: NCI tumour cell line growth inhibition, 384-well format
# NCI-H460 NSCLC = system: NCI-H460 NSCLC
# NCI-H23 lung = system: NCI-H23 lung
# SK-MEL-2 melanoma = system: SK-MEL-2 melanoma
# NCI-H522 lung = system: NCI-H522 lung
# SK-MEL-28 melanoma = system: SK-MEL-28 melanoma
# RXF 393 renal = system: RXF 393 renal
# RPMI-8226 leukemia = system: RPMI-8226 leukemia
# SW-620 colon = system: SW-620 colon
# DU-145 prostate = system: DU-145 prostate
# PC-3 prostate = system: PC-3 prostate
# HT29 colon = system: HT29 colon
# IGROV1 ovarian = system: IGROV1 ovarian
# T-47D breast = system: T-47D breast
# SNB-19 CNS = system: SNB-19 CNS
# COLO 205 colon = system: COLO 205 colon
# MCF7 breast = system: MCF7 breast
# SR leukemia = system: SR leukemia
# NCI/ADR-RES ovarian = system: NCI/ADR-RES ovarian
# M14 melanoma = system: M14 melanoma
# OVCAR-3 ovarian = system: OVCAR-3 ovarian
# MDA-MB-435 melanoma = system: MDA-MB-435 melanoma
# SK-OV-3 ovarian = system: SK-OV-3 ovarian
# A498 renal = system: A498 renal
# U251 glioblastoma = system: U251 glioblastoma
# ACHN renal = system: ACHN renal
# OVCAR-8 ovarian = system: OVCAR-8 ovarian
# BT-549 breast = system: BT-549 breast
# SF-295 CNS = system: SF-295 CNS
# MDA-MB-231 breast = system: MDA-MB-231 breast
# HS 578T breast = system: HS 578T breast
# SF-268 CNS = system: SF-268 CNS
# HL-60(TB) leukemia = system: HL-60(TB) leukemia
# SN12C renal = system: SN12C renal
# MOLT-4 leukemia = system: MOLT-4 leukemia
# SK-MEL-5 melanoma = system: SK-MEL-5 melanoma
# MALME-3M melanoma = system: MALME-3M melanoma
# NCI-H322M lung = system: NCI-H322M lung
# CAKI-1 renal = system: CAKI-1 renal
# HOP-62 NSCLC = system: HOP-62 NSCLC
# EKVX NSCLC = system: EKVX NSCLC
# HOP-92 NSCLC = system: HOP-92 NSCLC
# A549 NSCLC = system: A549 NSCLC
# HCC-2998 colon = system: HCC-2998 colon
# UACC-257 melanoma = system: UACC-257 melanoma
# NCI-H226 lung = system: NCI-H226 lung
# OVCAR-5 ovarian = system: OVCAR-5 ovarian
# OVCAR-4 ovarian = system: OVCAR-4 ovarian
# KM12 colon = system: KM12 colon
# TK-10 renal = system: TK-10 renal
# MDA-MB-468 breast = system: MDA-MB-468 breast
# SF-539 CNS = system: SF-539 CNS
# HCT-15 colon = system: HCT-15 colon
# UACC-62 melanoma = system: UACC-62 melanoma
# 786-0 renal = system: 786-0 renal
# CCRF-CEM leukemia = system: CCRF-CEM leukemia
# SNB-75 CNS = system: SNB-75 CNS
compound,measurement,setting,value
N[C@H]1C[C@@H]1c1ccc(-c2cccc(O)c2)cc1,GI50,NCI-H460 NSCLC,18.1 µM
same,TGI,NCI-H460 NSCLC,34.6 µM
same,GI50,NCI-H23 lung,23.3 µM
same,TGI,NCI-H23 lung,65.6 µM
same,GI50,SK-MEL-2 melanoma,32.5 µM
same,TGI,SK-MEL-2 melanoma,48.8 µM
same,GI50,NCI-H522 lung,17.9 µM
same,TGI,NCI-H522 lung,36.6 µM
same,GI50,SK-MEL-28 melanoma,22.5 µM
same,TGI,SK-MEL-28 melanoma,43.9 µM
same,GI50,RXF 393 renal,22 µM
same,TGI,RXF 393 renal,46.3 µM
same,GI50,RPMI-8226 leukemia,18.4 µM
same,TGI,RPMI-8226 leukemia,34.9 µM
same,GI50,SW-620 colon,22.5 µM
same,TGI,SW-620 colon,43.5 µM
same,GI50,DU-145 prostate,48.7 µM
same,TGI,DU-145 prostate,> 100 µM
same,GI50,PC-3 prostate,29.6 µM
same,TGI,PC-3 prostate,95.1 µM
same,GI50,HT29 colon,24.6 µM
same,TGI,HT29 colon,64.3 µM
same,GI50,IGROV1 ovarian,44.1 µM
same,TGI,IGROV1 ovarian,> 100 µM
same,GI50,T-47D breast,19.2 µM
same,TGI,T-47D breast,38.4 µM
same,GI50,SNB-19 CNS,42.8 µM
same,TGI,SNB-19 CNS,> 100 µM
same,GI50,COLO 205 colon,43.9 µM
same,TGI,COLO 205 colon,> 100 µM
same,GI50,MCF7 breast,36 µM
same,TGI,MCF7 breast,> 100 µM
same,GI50,SR leukemia,18.8 µM
same,TGI,SR leukemia,33.1 µM
same,GI50,NCI/ADR-RES ovarian,38.8 µM
same,TGI,NCI/ADR-RES ovarian,> 100 µM
same,GI50,M14 melanoma,20.1 µM
same,TGI,M14 melanoma,36.5 µM
same,GI50,OVCAR-3 ovarian,40.6 µM
same,TGI,OVCAR-3 ovarian,> 100 µM
same,GI50,MDA-MB-435 melanoma,20.9 µM
same,TGI,MDA-MB-435 melanoma,46.4 µM
same,GI50,SK-OV-3 ovarian,20 µM
same,TGI,SK-OV-3 ovarian,48.8 µM
same,GI50,A498 renal,20.3 µM
same,TGI,A498 renal,60.3 µM
same,GI50,U251 glioblastoma,24.1 µM
same,TGI,U251 glioblastoma,55.5 µM
same,GI50,ACHN renal,27 µM
same,TGI,ACHN renal,61.7 µM
same,GI50,OVCAR-8 ovarian,31.8 µM
same,TGI,OVCAR-8 ovarian,99.8 µM
same,GI50,BT-549 breast,19.5 µM
same,TGI,BT-549 breast,48.8 µM
same,GI50,SF-295 CNS,33.9 µM
same,TGI,SF-295 CNS,> 100 µM
same,GI50,MDA-MB-231 breast,21.1 µM
same,TGI,MDA-MB-231 breast,50.3 µM
same,GI50,HS 578T breast,16.9 µM
same,TGI,HS 578T breast,34.5 µM
same,GI50,SF-268 CNS,36.6 µM
same,TGI,SF-268 CNS,> 100 µM
same,GI50,HL-60(TB) leukemia,14.3 µM
same,TGI,HL-60(TB) leukemia,27.5 µM
same,GI50,SN12C renal,44.7 µM
same,TGI,SN12C renal,> 100 µM
same,GI50,MOLT-4 leukemia,14.7 µM
same,TGI,MOLT-4 leukemia,28 µM
same,GI50,SK-MEL-5 melanoma,14.1 µM
same,TGI,SK-MEL-5 melanoma,27.2 µM
same,GI50,MALME-3M melanoma,16.8 µM
same,TGI,MALME-3M melanoma,31.1 µM
same,GI50,NCI-H322M lung,74.5 µM
same,TGI,NCI-H322M lung,> 100 µM
same,GI50,CAKI-1 renal,24.6 µM
same,TGI,CAKI-1 renal,50.9 µM
same,GI50,HOP-62 NSCLC,17 µM
same,TGI,HOP-62 NSCLC,45 µM
same,GI50,EKVX NSCLC,30.8 µM
same,TGI,EKVX NSCLC,> 100 µM
same,GI50,HOP-92 NSCLC,29.4 µM
same,TGI,HOP-92 NSCLC,72.9 µM
same,GI50,A549 NSCLC,44.9 µM
same,TGI,A549 NSCLC,> 100 µM
same,GI50,HCC-2998 colon,18.4 µM
same,TGI,HCC-2998 colon,38.7 µM
same,GI50,UACC-257 melanoma,19.2 µM
same,TGI,UACC-257 melanoma,34.4 µM
same,GI50,NCI-H226 lung,30.3 µM
same,TGI,NCI-H226 lung,96.1 µM
same,GI50,OVCAR-5 ovarian,30.4 µM
same,TGI,OVCAR-5 ovarian,> 100 µM
same,GI50,OVCAR-4 ovarian,39.2 µM
same,TGI,OVCAR-4 ovarian,> 100 µM
same,GI50,KM12 colon,20.1 µM
same,TGI,KM12 colon,37.8 µM
same,GI50,TK-10 renal,31.5 µM
same,TGI,TK-10 renal,93.3 µM
same,GI50,MDA-MB-468 breast,4.18 µM
same,TGI,MDA-MB-468 breast,20.1 µM
same,GI50,SF-539 CNS,24.6 µM
same,TGI,SF-539 CNS,63.1 µM
same,GI50,HCT-15 colon,26.7 µM
same,TGI,HCT-15 colon,68 µM
same,GI50,UACC-62 melanoma,18.7 µM
same,TGI,UACC-62 melanoma,40.8 µM
same,GI50,786-0 renal,30.1 µM
same,TGI,786-0 renal,> 100 µM
same,GI50,CCRF-CEM leukemia,15 µM
same,TGI,CCRF-CEM leukemia,28.4 µM
same,GI50,SNB-75 CNS,18.9 µM
same,TGI,SNB-75 CNS,59.4 µM
